Reference: patent US20230092890A1, “1, 3, 4-Oxadiazole derivative compounds as histone deacetylase 6 inhibitor, and the pharmaceutical composition comprising the same” (Chong Kun Dang Pharmaceutical Corp., priority 2019, published 2023)

Legend:
HDAC1 = target: T1, HDAC1 (Homo sapiens, UniProt Q13547); assay: HDAC enzyme activity inhibition (in vitro), HDAC1 Fluorimetric Drug Discovery Assay Kit; assay type: biochemical; settings: samples at 100, 1000 and 10000 nM; 37° C. 60 minutes; fluorescence Ex 390, Em 460; read-out: HDAC1 IC50
T1 construct: purchased Enzolifesciences BML-AK511
T1 sequence (Q13547 whole entry): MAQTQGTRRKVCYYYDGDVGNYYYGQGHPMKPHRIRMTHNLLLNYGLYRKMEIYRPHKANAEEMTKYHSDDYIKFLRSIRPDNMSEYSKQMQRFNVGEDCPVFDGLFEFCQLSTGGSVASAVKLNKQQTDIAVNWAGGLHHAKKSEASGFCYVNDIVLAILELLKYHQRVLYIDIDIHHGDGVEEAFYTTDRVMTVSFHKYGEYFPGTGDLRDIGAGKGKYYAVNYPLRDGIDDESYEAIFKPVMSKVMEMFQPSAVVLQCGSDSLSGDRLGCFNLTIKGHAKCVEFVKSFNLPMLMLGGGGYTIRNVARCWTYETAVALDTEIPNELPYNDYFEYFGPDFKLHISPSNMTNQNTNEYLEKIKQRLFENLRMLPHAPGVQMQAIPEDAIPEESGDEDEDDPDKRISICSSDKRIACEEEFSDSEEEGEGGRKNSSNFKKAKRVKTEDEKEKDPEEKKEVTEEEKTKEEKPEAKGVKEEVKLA
Method: <Experimental Example 1> Identification of HDAC Enzyme Activity Inhibition (In Vitro)
A selective HDAC6 inhibitor is important for selectivity of HDAC1 inhibition, which is a cause of side effects, and thus HDAC1/6 enzyme selectivity and cell selectivity (HDAC1: histone acetylation/HDAC6: tubulin acetylation) were identified.
(§1) A HDAC enzyme inhibitory capacity of a test material was measured by using HDAC1 Fluorimetric Drug Discovery Assay Kit (Enzolifesciences: BML-AK511) and HDAC6 human recombinant (Calbiochem: 382180). For a HDAC1 assay, samples were treated at a concentration of 100, 1000 and 10000 nM. For a HDAC6 assay, samples were treated at a concentration of 0.1, 1, 10, 100 and 1000 nM. After the above sample treatment, a reaction was continued at 37° C. for 60 minutes, then treated with a developer, and then subjected to a reaction at 37° C. for 30 minutes, after which fluorescence intensity (Ex 390, Em 460) was measured by using FlexStatin3 (Molecular device).

HDAC6 human recombinant = target: T2, HDAC6 human recombinant (Homo sapiens, UniProt Q9UBN7); assay: HDAC enzyme activity inhibition (in vitro), HDAC6 assay; assay type: biochemical; settings: samples at 0.1, 1, 10, 100 and 1000 nM; 37° C. 60 minutes; fluorescence Ex 390, Em 460; read-out: HDAC6 IC50
T2 construct: purchased Calbiochem 382180
T2 sequence (Q9UBN7 1-1215): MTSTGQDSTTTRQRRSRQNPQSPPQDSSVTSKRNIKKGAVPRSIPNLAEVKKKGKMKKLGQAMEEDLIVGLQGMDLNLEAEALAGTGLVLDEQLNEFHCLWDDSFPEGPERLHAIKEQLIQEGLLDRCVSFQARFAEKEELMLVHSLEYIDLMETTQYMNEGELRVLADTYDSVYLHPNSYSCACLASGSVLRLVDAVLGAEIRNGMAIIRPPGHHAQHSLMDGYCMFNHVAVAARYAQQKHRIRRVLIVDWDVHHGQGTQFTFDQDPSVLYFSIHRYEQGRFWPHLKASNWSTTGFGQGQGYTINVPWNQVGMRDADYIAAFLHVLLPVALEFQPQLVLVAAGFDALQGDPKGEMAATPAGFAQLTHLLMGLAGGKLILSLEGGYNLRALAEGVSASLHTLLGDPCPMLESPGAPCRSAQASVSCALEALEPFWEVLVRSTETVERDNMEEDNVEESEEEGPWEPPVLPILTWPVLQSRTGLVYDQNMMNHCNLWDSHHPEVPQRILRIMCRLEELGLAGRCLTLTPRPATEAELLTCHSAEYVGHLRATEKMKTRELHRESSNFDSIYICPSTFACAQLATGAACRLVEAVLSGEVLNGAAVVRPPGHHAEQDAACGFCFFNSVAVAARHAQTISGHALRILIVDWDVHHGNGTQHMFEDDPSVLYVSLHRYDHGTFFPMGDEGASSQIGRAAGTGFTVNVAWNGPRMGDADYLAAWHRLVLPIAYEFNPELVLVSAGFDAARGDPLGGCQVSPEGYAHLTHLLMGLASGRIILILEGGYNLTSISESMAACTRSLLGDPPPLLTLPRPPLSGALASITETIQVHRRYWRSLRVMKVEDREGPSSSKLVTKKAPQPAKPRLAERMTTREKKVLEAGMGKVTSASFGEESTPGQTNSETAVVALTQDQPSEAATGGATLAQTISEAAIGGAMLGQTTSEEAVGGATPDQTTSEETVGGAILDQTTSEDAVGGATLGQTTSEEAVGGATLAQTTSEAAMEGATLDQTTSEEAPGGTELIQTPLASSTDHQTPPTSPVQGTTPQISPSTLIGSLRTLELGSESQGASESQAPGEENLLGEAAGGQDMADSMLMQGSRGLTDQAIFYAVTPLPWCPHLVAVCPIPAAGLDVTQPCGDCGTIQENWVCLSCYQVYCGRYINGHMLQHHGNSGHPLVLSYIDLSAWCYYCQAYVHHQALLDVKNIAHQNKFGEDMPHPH
Method: as §1, with “For a HDAC6 assay, samples were treated at a concentration of 0.1, 1, 10, 100 and 1000 nM.” left out

## O=c1n(Cc2ccc(-c3nnc(C(F)F)o3)cn2)c2cc(Cl)ccc2n1C1CCN(CC(F)(F)F)CC1 [Compound 236, 5-chloro-3-((5-(5-(difluoromethyl)-1,3,4-oxadiazole-2-yl)pyridine-2-yl)methyl)-1-(1-(2,2,2-trifluoroethyl)piperidine-4-yl)-1,3-dihydro-2H-benzo[d]imidazole-2-one]
HDAC1
  IC50: > 10000 nM
HDAC6 human recombinant
  IC50: 68 nM

## CN1CCC(n2c(=O)n(Cc3ccc(-c4nnc(C(F)F)o4)cn3)c3cc(F)c(-c4ccnn4C)cc32)CC1 [Compound 249, 1-((5-(5-(difluoromethyl)-1,3,4-oxadiazole-2-yl)pyridine-2-yl)methyl)-6-fluoro-5-(1-methyl-1H-pyrazole-5-yl)-3-(1-methylpiperidine-4-yl)-1,3-dihydro-2H-benzo[d]imidazole-2-one]
HDAC1
  IC50: > 10000 nM
HDAC6 human recombinant
  IC50: 18 nM

## Cn1c(=O)n(Cc2ccc(-c3nnc(C(F)F)o3)cn2)c2cc(F)c(N3CCN(Cc4cccc5[nH]ccc45)CC3)cc21 [Compound 284, 5-(4-((1H-indole-4-yl)methyl)piperazine-1-yl)-1-((5-(5-(difluoromethyl)-1,3,4-oxadiazole-2-yl)pyridine-2-yl)methyl)-6-fluoro-3-methyl-1,3-dihydro-2H-benzo[d]imidazole-2-one]
HDAC1
  IC50: > 10000 nM
HDAC6 human recombinant
  IC50: 59 nM

## Cn1c(=O)n(Cc2ccc(-c3nnc(C(F)F)o3)cc2F)c2cc(-c3ccncc3)ccc21 [Compound 111, 3-(4-(5-(difluoromethyl)-1,3,4-oxadiazole-2-yl)-2-fluorobenzyl)-1-methyl-5-(pyridine-4-yl)-1,3-dihydro-2H-benzo[d]imidazole-2-one]
HDAC1
  IC50: > 10000 nM
HDAC6 human recombinant
  IC50: 322 nM

## CC(C)(C)C(=O)Nc1ccc2c(c1)n(Cc1ccccc1)c(=O)n2Cc1ccc(-c2nnc(C(F)F)o2)cn1 [Compound 207, N-(3-benzyl-1-((5-(5-(difluoromethyl)-1,3,4-oxadiazole-2-yl)pyridine-2-yl)methyl)-2-oxo-2,3-dihydro-1H-benzo[d]imidazole-5-yl)pivalamide]
HDAC1
  IC50: > 10000 nM
HDAC6 human recombinant
  IC50: 173 nM

## CN1CCC(n2c(=O)n(Cc3ccc(-c4nnc(C(F)F)o4)cn3)c3cc(F)c(-c4ccccc4F)cc32)CC1 [Compound 152, 1-((5-(5-(difluoromethyl)-1,3,4-oxadiazole-2-yl)pyridine-2-yl)methyl)-6-fluoro-5-(2-fluorophenyl)-3-(1-methylpiperidine-4-yl)-1,3-dihydro-2H-benzo[d]imidazole-2-one]
HDAC1
  IC50: > 10000 nM
HDAC6 human recombinant
  IC50: 34 nM

## O=c1n(Cc2ccc(-c3nnc(C(F)F)o3)cc2)c2cc(F)ccc2n1C1CCN(C2COC2)CC1 [Compound 80, 3-(4-(5-(difluoromethyl)-1,3,4-oxadiazole-2-yl)benzyl)-5-fluoro-1-(1-(oxetan-3-yl)piperidine-4-yl)-1,3-dihydro-2H-benzo[d]imidazole-2-one]
HDAC1
  IC50: > 10000 nM
HDAC6 human recombinant
  IC50: 61 nM

## O=C(N1CCOCC1)N1CCC(n2c(=O)n(Cc3ccc(-c4nnc(C(F)F)o4)cn3)c3cc(F)ccc32)CC1 [Compound 61, 3-((5-(5-(difluoromethyl)-1,3,4-oxadiazole-2-yl)pyridine-2-yl)methyl)-5-fluoro-1-(1-(morpholine-4-carbonyl)piperidine-4-yl)-1,3-dihydro-2H-benzo[d]imidazole-2-one]
HDAC1
  IC50: > 10000 nM
HDAC6 human recombinant
  IC50: 32 nM

## CS(=O)(=O)N1CCC(n2c(=O)n(Cc3ccc(-c4nnc(C(F)F)o4)cc3F)c3cc(C(F)(F)F)ccc32)CC1 [Compound 196, 3-(4-(5-(difluoromethyl)-1,3,4-oxadiazole-2-yl)-2-fluorobenzyl)-1-(1-(methylsulfonyl)piperidine-4-yl)-5-(trifluoromethyl)-1,3-dihydro-2H-benzo[d]imidazole-2-one]
HDAC1
  IC50: > 10000 nM
HDAC6 human recombinant
  IC50: 126 nM

## CC(=O)N1CCC(n2c(=O)n(Cc3ccc(-c4nnc(C(F)F)o4)cn3)c3ccc(F)cc32)CC1 [Compound 42, 3-(1-acetylpiperidine-4-yl)-1-((5-(5-(difluoromethyl)-1,3,4-oxadiazole-2-yl)pyridine-2-yl)methyl)-5-fluoro-1,3-dihydro-2H-benzo[d]imidazole-2-one]
HDAC1
  IC50: > 10000 nM
HDAC6 human recombinant
  IC50: 106 nM

## O=c1n(Cc2ccc(-c3nnc(C(F)F)o3)cn2)c2cc(F)ccc2n1C1CCN(C2COC2)CC1 [Compound 53, 3-((5-(5-(difluoromethyl)-1,3,4-oxadiazole-2-yl)pyridine-2-yl)methyl)-5-fluoro-1-(1-(oxetan-3-yl)piperidine-4-yl)-1,3-dihydro-2H-benzo[d]imidazole-2-one]
HDAC1
  IC50: > 10000 nM
HDAC6 human recombinant
  IC50: 37 nM

## O=c1n(Cc2ccc(-c3nnc(C(F)F)o3)cn2)c2ccc(F)cc2n1C1CCN(C2COC2)CC1 [Compound 41, 1-((5-(5-(difluoromethyl)-1,3,4-oxadiazole-2-yl)pyridine-2-yl)methyl)-5-fluoro-3-(1-(oxetan-3-yl)piperidine-4-yl)-1,3-dihydro-2H-benzo[d]imidazole-2-one]
HDAC1
  IC50: > 10000 nM
HDAC6 human recombinant
  IC50: 92 nM

## Cc1ccc(-c2ccc3c(c2)n(C)c(=O)n3Cc2ccc(-c3nnc(C(F)F)o3)cn2)o1 [Compound 218, 1-((5-(5-(difluoromethyl)-1,3,4-oxadiazole-2-yl)pyridine-2-yl)methyl)-3-methyl-5-(5-methylfuran-2-yl)-1,3-dihydro-2H-benzo[d]imidazole-2-one]
HDAC1
  IC50: > 10000 nM
HDAC6 human recombinant
  IC50: 44 nM

## CN1CCC(n2c(=O)n(Cc3ccc(-c4nnc(C(F)F)o4)cn3)c3cc(F)c(-c4cn(C(=O)OC(C)(C)C)c5ccc(Cl)cc45)cc32)CC1 [Compound 254]
HDAC1
  IC50: > 10000 nM
HDAC6 human recombinant
  IC50: 472 nM

## CN1CCC(n2c(=O)n(Cc3ccc(-c4nnc(C(F)F)o4)cc3F)c3ccc(-c4ccoc4)cc32)CC1 [Compound 162, 1-(4-(5-(difluoromethyl)-1,3,4-oxadiazole-2-yl)-2-fluorobenzyl)-5-(furan-3-yl)-3-(1-methylpiperidine-4-yl)-1,3-dihydro-2H-benzo[d]imidazole-2-one]
HDAC1
  IC50: > 10000 nM
HDAC6 human recombinant
  IC50: 39 nM

## O=c1n(Cc2ccc(-c3nnc(C(F)F)o3)cn2)c2cc(F)c(-c3cn[nH]c3)cc2n1CC1CCN(C2COC2)CC1 [Compound 292, 1-((5-(5-(difluoromethyl)-1,3,4-oxadiazole-2-yl)pyridine-2-yl)methyl)-6-fluoro-3-((1-(oxetan-3-yl)piperidine-4-yl)methyl)-5-(1H-pyrazole-4-yl)-1,3-dihydro-2H-benzo[d]imidazole-2-one]
HDAC1
  IC50: > 10000 nM
HDAC6 human recombinant
  IC50: 3 nM

## CC(=O)N1CCC(n2c(=O)n(Cc3ccc(-c4nnc(C(F)F)o4)cc3F)c3cc(C(F)(F)F)ccc32)CC1 [Compound 180, 1-(1-acetylpiperidine-4-yl)-3-(4-(5-(difluoromethyl)-1,3,4-oxadiazole-2-yl)-2-fluorobenzyl)-5-(trifluoromethyl)-1,3-dihydro-2H-benzo[d]imidazole-2-one]
HDAC1
  IC50: > 10000 nM
HDAC6 human recombinant
  IC50: 38 nM
